# Like-named read-outs stand apart in the source and are kept apart here. Starred links: 1 amine or outer side, 2 acyl side, 3 side chain; linkers in the order of their positions; H or OH if unused. Positions of bridges follow the written chain, without caps; N, C: chain ends. Non-standard residues stand in square brackets, D forms with d. Residues, ends and D or L forms follow the SMILES beside them. Hyp = O=C(O)[C@@H]1C[C@@H](O)CN1; Agp = N=C(N)NC[C@H](N)C(=O)O; Api = NC1(C(=O)O)CCNCC1; Ac4c = NC1(C(=O)O)CCC1; Aib = CC(C)(N)C(=O)O; CH2 = C([*:1])[*:2]; βAla = NCCC(=O)O
# Experiments:
# human MC4R [1] = biological target: T1, human MC4R (Homo sapiens, UniProt P32245); assay: Functional cAMP assay (CisBio HTRF) in BHK cells expressing human MC4R; assay type: cell-based; conditions: for MC1R/MC4R cAMP EC50 ratio: MC1R cAMP EC50 divided by MC4R cAMP EC50
# T1 construct: expressed in transfected cells
# T1 sequence (P32245 whole entry): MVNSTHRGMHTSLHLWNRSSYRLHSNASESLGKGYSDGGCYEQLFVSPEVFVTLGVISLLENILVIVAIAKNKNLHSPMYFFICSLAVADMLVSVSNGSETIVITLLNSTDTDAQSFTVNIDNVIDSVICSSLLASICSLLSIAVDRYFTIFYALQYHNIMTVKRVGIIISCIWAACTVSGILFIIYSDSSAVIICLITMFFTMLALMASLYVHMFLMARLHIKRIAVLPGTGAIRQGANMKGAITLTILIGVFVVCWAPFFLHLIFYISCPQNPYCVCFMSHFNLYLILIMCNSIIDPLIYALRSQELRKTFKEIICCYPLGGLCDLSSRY
# Description: In order to assess the potency of the compounds on human MC1R and human MC4R cAMP signalling was measured.
# cAMP induction was measured by c-AMPdynamic2 assay, HTRF 62AM4PEC system from CisBio for the human MC1R and human MC4R according to the protocol provided by the vendor. BHK cells expressing the human MC1 or MC4 receptor were generated by stable transfection with expression vectors encoding the cDNA of either MC1R or MC4R.
# In details; 25 μl compound—or standard solution were added in the respective wells. Compound was reconstituted in buffer (DMEM w/o phenol red, 10 mM
# Hepes, lx Glutamine, 0.1% OV-albumin1, 1 mM IBMX) and serially diluted starting at 2 μM, 10-fold seven times. Dilutions were carried out in the same aforementioned buffer to the desired working concentration ranges (2× higher than the final concentration). 25 μl cell solution was then added and allowed to incubate for 30 min while lightly shaking, at 25° C. […] The provided components for the assay were reconstituted according to the CisBio assay protocol “3.1 supplied reagents and preparation procedure” in MilliQ purification system H2O and diluted 1:20 in lysis buffer. 25 μl cAMP-d2 and 25 μl Cryptate conjugate were added to all wells.
# Plates were centrifuged at 1500 rpm for 30 sec and incubated for 1 h, lightly shaking, at 25° C. in a hotel stacker. The plates were read on Mithras LB 940 provided by Berthold Technologies The data were analysed by non-linear regression analysis of binding curves, using the Windows™ program GraphPad™ Prism (GraphPad Software, USA).
# The latter is used when no full curve can be obtained in the concentration ranges indicated above.
# human MC4R [2] = biological target: T1, human MC4R; assay: 125NDP-α-MSH competitive binding to membranes of BHK cells expressing human MC4 receptor (filtration assay)
# Description: In Vitro ^125NDP-α-MSH Binding to Recombinant BHK Cells Expressing Human MC4 Receptor (Filtration Assay)
# In order to assess the binding affinity of the selected compounds for the human MC4R competitive binding assays was performed with radiolabeled NDP-alpha MSH (^125NDP-α-MSH).
# The assay was performed in 96-well filterplates (Unifilter) using BHK cells stably expressing the human MC4 receptor.
# The BHK cell membranes were prepared from frozen or fresh cells that were homogenized in 20 mM HEPES pH 7.1, 5 mM MgCl2, 1 mg/ml bacitracin (buffer 1) and centrifuged at 15000 rpm at 4° C., 10 min in a Sorvall RC 5B plus, SS-34 rotor. The supernatant was discarded, and the pellets were re-suspended in buffer 1, homogenized and centrifuged two more times. The final pellets were re-suspended in buffer 1 and the protein concentration was measured and adjusted with buffer 1 to 5 mg/ml and the membrane preparation was kept at −80° C. until assay. The assay was run on a dilution of this cell membrane suspension without any further preparation. The suspension was diluted to give maximally 10% specific binding, i.e. to approx. 50-100 fold dilution, optimized after each membrane preparation. The assay was performed in a total volume of 200 μl: 50 μl of cell suspension, 50 μl of ^125NDP-α-MSH (apx. […] in final concentration), 50 μl of test compound and 50 μl binding buffer were mixed and incubated for 2 h at 25° C. (binding buffer: 25 mM HEPES, pH 7.0, 1 mM CaCl2), 1 mM MgSO4, 1 mM EGTA, 0.005% Tween™ 20 and 0.1% HSA or, alternatively, 0.1% ovalbumin (Sigma; catalogue No. A-5503)). Test compounds were dissolved in 100% DMSO and diluted in binding buffer in a dose range from 1 μM to 0.001 nM. Radiolabelled ligand and membranes were diluted in binding buffer. The incubation was stopped by dilution with 8×100 μl ice-cold 0.9% NaCl. The radioactivity retained on the filters was counted using a Packard Topcounter. The data were analysed by non-linear regression analysis of binding curves, using the Windows™ program GraphPad™ Prism (GraphPad Software, USA).
# [3] = BHK cells expressing human MC4R, '>' = highest dose used with no response, read-out: MC4R cAMP EC50
# [4] = human MC4R, BHK cell membranes, 125NDP-α-MSH radioligand, read-out: MC4R binding Ki
SMILES,EC50 (human MC4R [1]; [3]) [nM],MC1R/MC4R cAMP EC50 ratio (human MC4R [1]),Ki (human MC4R [2]; [4]) [nM],EC50 (human MC4R [1]) [nM],Ki (human MC4R [2]) [nM]
"C[C@@H]1NC(=O)[C@@H]2CSSC[C@H](NC(=O)[C@H](Cc3c[nH]c4ccccc34)NC(=O)[C@H](CCCCN)NC(=O)[C@@H](Cc3ccccc3)NC(=O)[C@H](Cc3c[nH]cn3)NC1=O)C(=O)N[C@@H](C)C(=O)N[C@@H](Cc1c[nH]cn1)C(=O)N[C@H](Cc1ccccc1)C(=O)N[C@@H](CCCCN)C(=O)N[C@@H](Cc1c[nH]c3ccccc13)C(=O)N2 [Chem. 15, c[c[Cys-Ala-His-D-Phe-Lys-Trp-Cys]- Ala-His-D-Phe-Lys-Trp]] (cyclo(AH[dF]KWCAH[dF]KWC); disulfide 6-12)",0.09,60,0.12,–,–
"C[C@@H]1NC(=O)[C@@H]2CSSC[C@H](NC(=O)[C@H](Cc3c[nH]c4ccccc34)NC(=O)[C@H](CCCCN(C)C)NC(=O)[C@@H](Cc3ccccc3)NC(=O)[C@H](Cc3c[nH]cn3)NC1=O)C(=O)N[C@@H](C)C(=O)N[C@@H](Cc1c[nH]cn1)C(=O)N[C@H](Cc1ccccc1)C(=O)N[C@@H](CCCCN(C)C)C(=O)N[C@@H](Cc1c[nH]c3ccccc13)C(=O)N2 [Chem. 18, c[c[Cys-Ala-His-D-Phe-Lys(Me)2-Trp- Cys]-Ala-His-D-Phe-Lys(Me)2-Trp]]",0.12,35,0.38,–,–
"N=C(N)NCCC[C@@H]1NC(=O)[C@@H](Cc2ccccc2)NC(=O)[C@H](Cc2c[nH]cn2)NC(=O)C2(CCC2)NC(=O)[C@@H]2CSSC[C@H](NC(=O)[C@H](Cc3c[nH]c4ccccc34)NC1=O)C(=O)NC1(CCC1)C(=O)N[C@@H](Cc1c[nH]cn1)C(=O)N[C@H](Cc1ccccc1)C(=O)N[C@@H](CCCNC(=N)N)C(=O)N[C@@H](Cc1c[nH]c3ccccc13)C(=O)N2 [Chem. 20, c[c[Cys-ACBC-His-D-Phe-Arg-Trp- Cys]-ACBC-His-D-Phe-Arg-Trp]] (cyclo([Ac4c]H[dF]RWC[Ac4c]H[dF]RWC); disulfide 6-12)",–,124,–,0.04,0.15
"N=C(N)NCCC[C@@H]1NC(=O)[C@@H](Cc2ccccc2)NC(=O)[C@H](Cc2c[nH]cn2)NC(=O)CCNC(=O)[C@@H]2CSSC[C@H](NC(=O)[C@H](Cc3c[nH]c4ccccc34)NC1=O)C(=O)NCCC(=O)N[C@@H](Cc1c[nH]cn1)C(=O)N[C@H](Cc1ccccc1)C(=O)N[C@@H](CCCNC(=N)N)C(=O)N[C@@H](Cc1c[nH]c3ccccc13)C(=O)N2 [Chem. 25, c[c[Cys-βAla-His-D-Phe-Arg-Trp- Cys]-βAla-His-D-Phe-Arg-Trp]] (cyclo(C[βAla]H[dF]RWC[βAla]H[dF]RW); disulfide 1-7)",0.02,17,0.04,–,–
"N=C(N)NCCC[C@@H]1NC(=O)[C@@H](Cc2ccccc2)NC(=O)[C@@H]2C[C@@H](O)CN2C(=O)[C@@H]2CSCSC[C@H](NC(=O)[C@H](Cc3c[nH]c4ccccc34)NC1=O)C(=O)N1C[C@H](O)C[C@H]1C(=O)N[C@H](Cc1ccccc1)C(=O)N[C@@H](CCCNC(=N)N)C(=O)N[C@@H](Cc1c[nH]c3ccccc13)C(=O)N2 [Chem. 26, c[c[Cys-Hyp-D-Phe-Arg-Trp-Cys]- Hyp-D-Phe-Arg-Trp]] (cyclo(C[Hyp][dF]RWC[Hyp][dF]RW); linker 1-6 via CH2)",–,96,0.44,–,–
"N=C(N)NCCC[C@@H]1NC(=O)[C@@H](Cc2ccccc2)NC(=O)[C@H](Cc2c[nH]cn2)NC(=O)[C@@H]2CCCN2C(=O)[C@@H]2CSSC[C@H](NC(=O)[C@H](Cc3c[nH]c4ccccc34)NC1=O)C(=O)N1CCC[C@H]1C(=O)N[C@@H](Cc1c[nH]cn1)C(=O)N[C@H](Cc1ccccc1)C(=O)N[C@@H](CCCNC(=N)N)C(=O)N[C@@H](Cc1c[nH]c3ccccc13)C(=O)N2 [Chem. 30, c[c[Cys-Pro-His-D-Phe-Arg-Trp-Cys]- Pro-His-D-Phe-Arg-Trp]] (cyclo(CPH[dF]RWCPH[dF]RW); disulfide 1-7)",0.03,5,0.09,–,–
"CC(C)[C@H]1NC(=O)[C@@H]2CSSC[C@H](NC(=O)[C@H](Cc3c[nH]c4ccccc34)NC(=O)[C@H](CCCNC(=N)N)NC(=O)[C@@H](Cc3ccccc3)NC(=O)[C@H](Cc3c[nH]cn3)NC1=O)C(=O)N[C@H](C(C)C)C(=O)N[C@@H](Cc1c[nH]cn1)C(=O)N[C@H](Cc1ccccc1)C(=O)N[C@@H](CCCNC(=N)N)C(=O)N[C@@H](Cc1c[nH]c3ccccc13)C(=O)N2 [Chem. 34, c[c[Cys-D-Val-His-D-Phe-Arg-Trp- Cys]-D-Val-His-D-Phe-Arg-Trp]] (cyclo(C[dV]H[dF]RWC[dV]H[dF]RW); disulfide 1-7)",0.12,22,0.88,–,–
"CC(C)[C@@H]1NC(=O)[C@@H]2CSSC[C@H](NC(=O)[C@H](Cc3c[nH]c4ccccc34)NC(=O)[C@H](CCCNC(=N)N)NC(=O)[C@@H](Cc3ccccc3)NC(=O)[C@H](Cc3c[nH]cn3)NC1=O)C(=O)N[C@@H](C(C)C)C(=O)N[C@@H](Cc1c[nH]cn1)C(=O)N[C@H](Cc1ccccc1)C(=O)N[C@@H](CCCNC(=N)N)C(=O)N[C@@H](Cc1c[nH]c3ccccc13)C(=O)N2 [Chem. 36, c[c[Cys-Val-His-D-Phe-Arg-Trp-Cys]- Val-His-D-Phe-Arg-Trp]] (cyclo(CVH[dF]RWCVH[dF]RW); disulfide 1-7)",0.04,26,0.12,–,–
"CC1(C)NC(=O)[C@@H]2CSSC[C@H](NC(=O)[C@H](Cc3c[nH]c4ccccc34)NC(=O)[C@H](CCCCN)NC(=O)[C@@H](Cc3ccccc3)NC(=O)[C@H](Cc3c[nH]cn3)NC1=O)C(=O)NC(C)(C)C(=O)N[C@@H](Cc1c[nH]cn1)C(=O)N[C@H](Cc1ccccc1)C(=O)N[C@@H](CCCCN)C(=O)N[C@@H](Cc1c[nH]c3ccccc13)C(=O)N2 [Chem. 40, c[c[Cys-Aib-His-D-Phe-Lys-Trp-Cys]- Aib-His-D-Phe-Lys-Trp]] (cyclo([Aib]H[dF]KWC[Aib]H[dF]KWC); disulfide 6-12)",0.29,38,0.31,–,–
"CC1(C)NC(=O)[C@@H]2CSSC[C@H](NC(=O)[C@H](Cc3c[nH]c4ccccc34)NC(=O)[C@H](CNC(=N)N)NC(=O)[C@@H](Cc3ccccc3)NC(=O)[C@H](Cc3c[nH]cn3)NC1=O)C(=O)NC(C)(C)C(=O)N[C@@H](Cc1c[nH]cn1)C(=O)N[C@H](Cc1ccccc1)C(=O)N[C@@H](CNC(=N)N)C(=O)N[C@@H](Cc1c[nH]c3ccccc13)C(=O)N2 [Chem. 43, c[c[Cys-Aib-His-D-Phe-AGP-Trp- Cys]-Aib-His-D-Phe-AGP-Trp]] (cyclo([Agp]WC[Aib]H[dF][Agp]WC[Aib]H[dF]); disulfide 3-9)",0.44,107,2.61,–,–
"N=C(N)NCCC[C@@H]1NC(=O)[C@@H](Cc2ccccc2)NC(=O)[C@H](Cc2c[nH]cn2)NC(=O)C2(CCNCC2)NC(=O)[C@@H]2CSSC[C@H](NC(=O)[C@H](Cc3c[nH]c4ccccc34)NC1=O)C(=O)NC1(CCNCC1)C(=O)N[C@@H](Cc1c[nH]cn1)C(=O)N[C@H](Cc1ccccc1)C(=O)N[C@@H](CCCNC(=N)N)C(=O)N[C@@H](Cc1c[nH]c3ccccc13)C(=O)N2 [Chem. 47, c[c[Cys-ACP-His-D-Phe-Arg-Trp- Cys]-ACP-His-D-Phe-Arg-Trp]] (cyclo([Api]H[dF]RWC[Api]H[dF]RWC); disulfide 6-12)",–,23,–,0.12,0.72

# Source: patent US20200223889A1, “Bicyclic Compounds Capable of Binding to Melanocortin 4 Receptor” (Novo Nordisk A/S, priority 2017, published 2020)
